Reference: patent publication US10759796B2, “CXCR4 inhibitors and uses thereof” (X4 Pharmaceuticals, Inc., priority 2016, dated 2020)
Read-outs that look alike come from different tables or passages of the source.

Tests used:
in vitro = conditions: human, Caco-2, pH 7.4
Outline: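 Compounds at 10 μM in HBSS pH 7.4 (0.1–0.3% DMSO) were dosed on Caco-2 monolayers, apical-to-basolateral and basolateral-to-apical, for 90 min at 37 °C, in duplicate. Monolayer integrity was checked by TEER and lucifer yellow flux, read by fluorescence at 485/535 nm. Compound was quantified by LC-MS/MS and Papp calculated.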

[1] = Fraction of drug unbound to plasma proteins, mouse; type: in vitro ADME; conditions: Mouse plasma proteins (Table 10); read-out: Fu (p) %
[2] = Fraction of drug unbound to brain proteins, mouse; type: in vitro ADME; conditions: Mouse brain proteins (Table 10); read-out: Fu (b) %
[3] = biological target: Jurkat cells expressing CXCR4 (Homo sapiens (Human), UniProt P61073); test: Chemokine (CXCL12-AF647) binding inhibition assay; conditions: CXCL12-AF647 25 ng/mL, read-out: IC50 CXCL-12 binding Jurkat
Jurkat cells expressing CXCR4, sequence (P61073 whole entry): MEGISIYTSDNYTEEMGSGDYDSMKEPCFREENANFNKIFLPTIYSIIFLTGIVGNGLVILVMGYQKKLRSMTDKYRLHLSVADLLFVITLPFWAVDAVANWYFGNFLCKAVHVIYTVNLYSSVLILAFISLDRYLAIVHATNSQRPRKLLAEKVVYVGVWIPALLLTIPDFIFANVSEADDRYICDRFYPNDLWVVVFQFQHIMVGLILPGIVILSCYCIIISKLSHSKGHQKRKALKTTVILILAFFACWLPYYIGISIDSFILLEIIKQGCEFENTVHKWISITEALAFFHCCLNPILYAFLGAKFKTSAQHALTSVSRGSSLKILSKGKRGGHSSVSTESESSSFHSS
Outline: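 Cells in HBSS, 20 mM HEPES, 0.2% BSA, pH 7.4, preincubated 15 min at room temperature with compound, then 25 ng/mL CXCL12-AF647 for 30 min. After washing and paraformaldehyde fixation, bound ligand read by flow cytometry; percent inhibition calculated from MFI relative to unlabeled and ligand-only controls.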

[4] = biological target: CXCR-4 transfected U87 cell line (U87.CXCR4) (Homo sapiens (Human), UniProt P61073); test: Intracellular CXCL-12-induced calcium mobilization assay (FLIPR); type: cell-based; conditions: U87.CXCR4 cells, CXCL-12 25-50 ng/mL; read-out: IC50 CXCL-12 Ca2+ flux U87.CXCR4+
CXCR-4 transfected U87 cell line (U87.CXCR4), sequence (P61073 whole entry): as above
Outline: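 U87.CXCR4 cells were seeded at 20,000 per well, cultured 12 hours, then loaded with 4 μM Fluo-2 AM for 45 min at 37° C. in HBSS with 20 mM HEPES and 0.2% BSA, pH 7.4. Calcium flux triggered by CXCL-12 (25-50 ng/mL) was tracked over time by FLIPR fluorescence at 37° C.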

[5] = Mouse brain uptake assay, 0-24 h, 4 time points; type: in vivo; conditions: male, 3 mg/kg IV, 4 time points; for Kp / Kp uu: CD1, brain and plasma; for Kp / Kp uu / clearance / half-life: Mouse; for clearance / half-life: CD1, plasma; for half-life: read-out: t½ (converted)
Procedure: The study design (9 animals) consisted of administrating the drug (IV: 3 mg/kg (5 mL/kg) via tail vein injection) and collecting samples at terminal bleeding for plasma and brain at 0.083, 0.5 and 1 h. The blood collection was performed as follows: the animal was restrained manually and approximately 150 μL blood/time point was collected into a dipotassium EDTA tube via retro orbital puncture under anesthesia with isoflurane. The blood sample was put on ice and centrifuged to obtain a plasma sample (2000 g, 5 min under 4° C.) within 15 minutes. The brain collection was performed as follows: a mid-line incision was made in the animal's scalp and the skin was retracted. Using small bone cutters and rongeurs, the skull overlying the brain was removed. The brain was removed using a spatula and the brain rinsed with cold saline. The brain was placed in screw-top tubes, and the tubes were stored at −70° C. until analysis. The IV dosing solution was prepared in 50 mM citrate buffer (pH 4.0) at 0.6 mg/mL.
An aliquot of 30 μL sample was added to 150 μL MeCN containing 50 ng/mL IS (Dexamethasone). The mixture was vortexed for 5 min and centrifuged at 14,000 rpm for 5 min. An aliquot of 5 μL supernatant was injected for LC-MS/MS analysis.
An aliquot of 30 μL brain homogenate (brain:PBS=1:3, w/v) sample was added to 150 μL IS in ACN (Dexamethasone, 50 ng/mL). The mixture was vortexed for 5 min and centrifuged at 14,000 rpm for 5 min. An aliquot of 5 μL supernatant was injected for LC-MS/MS analysis.
The sample analysis was performed on LCMS/MS-003 (API4000, triple quadruple) under the following conditions: positive ion, ESI, MRM detection using dexamethasone as internal standard. HPLC conditions: mobile phase A: H2O (0.025% formic acid (FA) with 1 mM NH4OAc); mobile phase B: MeOH (0.025% FA with 1 mM NH4OAc) on Waters X-Bridge C18 (2.1×50 mm, 2.5 μm) column at 60° C.
A similar experiment was performed with 4 time points taken from 0-24 h.

[6] = CD1, Mouse brain, read-out: AUClast (b)
[7] = CD1, Mouse plasma, read-out: AUClast (p)

Papp A→B at 90 min, 10 μM (in vitro) | Papp B→A at 90 min, 10 μM (in vitro) | efflux ratio at 90 min, 10 μM (in vitro) | fraction unbound [1] | fraction unbound [2] | IC50 [3] | IC50 [4] | AUC(0-t) [5, 6] | AUC(0-t) [5, 7] | Kp [5] | Kp uu [5] | clearance [5] | half-life [5] | SMILES
10 to 30 ×10⁻⁶ cm/s | 10 to 30 ×10⁻⁶ cm/s | 0.1 to 10 | 0.047 | 0.004 | 0.01 to 100 nM | 0.01 to 100 nM | 13700 ng·h/mL | 2130 ng·h/mL | 6.41 | 0.54 | 22 mL/min/kg | 6.42 h | Cc1c([C@@H]2CCC[C@H](c3ncccc3Cl)N2)nc2cccc(N3CCN(C)CC3)n12 (stereo in doubt) [Compound I-193]
0.1 to 10 ×10⁻⁶ cm/s | 0.1 to 10 ×10⁻⁶ cm/s | 0.1 to 10 | 0.026 | 0.005 | 0.01 to 100 nM | 0.01 to 100 nM | 26900 ng·h/mL | 1400 ng·h/mL | 19.2 | 3.68 | 35.3 mL/min/kg | 3.96 h | CN1CCN(c2cccc3nc([C@H]4CCC[C@@H](c5ncccc5Cl)N4C)c(Cl)n23)CC1 [Compound I-115]
10 to 30 ×10⁻⁶ cm/s | 10 to 30 ×10⁻⁶ cm/s | 0.1 to 10 | 0.039 | 0.006 | 0.01 to 100 nM | 0.01 to 100 nM | 32300 ng·h/mL | 1480 ng·h/mL | 21.8 | 3.35 | 33.5 mL/min/kg | 3.56 h | CCOCc1c([C@H]2CCC[C@@H](c3ncccc3Cl)N2C)nc2cccc(N3CCN(C)CC3)n12 [Compound I-117]
0.1 to 10 ×10⁻⁶ cm/s | 10 to 30 ×10⁻⁶ cm/s | 0.1 to 10 |  |  | 0.01 to 100 nM | 0.01 to 100 nM |  |  |  |  |  |  | Cc1cccnc1[C@@H]1CCC[C@H](c2nc3ccccn3c2N2CCN(C)CC2)N1C [Compound I-152]
0.1 to 10 ×10⁻⁶ cm/s | 10 to 30 ×10⁻⁶ cm/s | 0.1 to 10 |  |  | 100 to 1000 nM | ≥ 1000 nM |  |  |  |  |  |  | Cc1cccnc1[C@@H]1CCC[C@H](c2nc3ccccn3c2N2CCN(C)CC2)N1 [Compound I-154]
0.1 to 10 ×10⁻⁶ cm/s | 10 to 30 ×10⁻⁶ cm/s | 0.1 to 10 |  |  | 0.01 to 100 nM | 0.01 to 100 nM |  |  |  |  |  |  | Cc1cccnc1[C@@H]1CCC[C@H](c2cn3c(N4CCNC5(CC5)C4)cccc3n2)N1C [Compound I-156]
10 to 30 ×10⁻⁶ cm/s | 10 to 30 ×10⁻⁶ cm/s | 0.1 to 10 |  |  | 0.01 to 100 nM | 0.01 to 100 nM |  |  |  |  |  |  | CN1[C@@H](c2cn3c(N4CCNC5(CC5)C4)cccc3n2)CCC[C@H]1c1ncccc1Cl [Compound I-159]
10 to 30 ×10⁻⁶ cm/s | 10 to 30 ×10⁻⁶ cm/s | 0.1 to 10 |  |  | 100 to 1000 nM | ≥ 1000 nM |  |  |  |  |  |  | CN1CCN(c2cccc3nc([C@H]4CCC[C@@H](c5ncccc5Cl)N4)cn23)CC12CC2 [Compound I-160]
10 to 30 ×10⁻⁶ cm/s | 10 to 30 ×10⁻⁶ cm/s | 0.1 to 10 |  |  | 0.01 to 100 nM | 0.01 to 100 nM |  |  |  |  |  |  | Cc1cccnc1[C@@H]1CCC[C@H](c2nc3c(N)ccc(N4CCN(C)CC4)n3c2Cl)N1C [Compound I-164]
10 to 30 ×10⁻⁶ cm/s | 10 to 30 ×10⁻⁶ cm/s | 0.1 to 10 |  |  | 100 to 1000 nM | ≥ 1000 nM |  |  |  |  |  |  | Clc1cccnc1[C@@H]1CCC[C@H](c2cn3c(N4CCNC5(CC5)C4)cccc3n2)N1 [Compound I-166]
0.1 to 10 ×10⁻⁶ cm/s | 0.1 to 10 ×10⁻⁶ cm/s | 0.1 to 10 |  |  | 100 to 1000 nM | ≥ 1000 nM |  |  |  |  |  |  | Clc1cccnc1[C@@H]1CCC[C@H](c2nc3cccc(N4CCNC5(CC5)C4)n3c2Cl)N1 [Compound I-167]
0.1 to 10 ×10⁻⁶ cm/s | > 30 ×10⁻⁶ cm/s | > 30 |  |  | ≥ 1000 nM | ≥ 1000 nM |  |  |  |  |  |  | COc1cccnc1[C@@H]1CCC[C@H](c2cn3c(N4CCNC5(CC5)C4)cccc3n2)N1 [Compound I-172]
0.1 to 10 ×10⁻⁶ cm/s | 10 to 30 ×10⁻⁶ cm/s | 0.1 to 10 |  |  | 100 to 1000 nM | ≥ 1000 nM |  |  |  |  |  |  | COc1cccnc1[C@@H]1CCC[C@H](c2nc3cccc(N4CCN(C)CC4)n3c2Cl)N1 [Compound I-173]
0.1 to 10 ×10⁻⁶ cm/s | 10 to 30 ×10⁻⁶ cm/s | 0.1 to 10 |  |  | ≥ 1000 nM | ≥ 1000 nM |  |  |  |  |  |  | COc1cccnc1[C@@H]1CCC[C@H](c2nc3cccc(N4CCNC5(CC5)C4)n3c2Cl)N1 [Compound I-175]
0.1 to 10 ×10⁻⁶ cm/s | 10 to 30 ×10⁻⁶ cm/s | 0.1 to 10 |  |  | 0.01 to 100 nM | 0.01 to 100 nM |  |  |  |  |  |  | CN1CCN(c2cccc3nc([C@H]4CCC[C@@H](c5ncccc5C5CC5)N4)cn23)CC1 [Compound I-179]
10 to 30 ×10⁻⁶ cm/s | 10 to 30 ×10⁻⁶ cm/s | 0.1 to 10 |  |  | 0.01 to 100 nM | 0.01 to 100 nM |  |  |  |  |  |  | CN1CCN(c2cccc3nc([C@H]4CCC[C@@H](c5ncccc5C5CC5)N4)c(Cl)n23)CC1 [Compound I-180]
0.1 to 10 ×10⁻⁶ cm/s | > 30 ×10⁻⁶ cm/s | 10 to 30 |  |  | 100 to 1000 nM | ≥ 1000 nM |  |  |  |  |  |  | Cc1cccnc1[C@@H]1CCC[C@H](c2cn3c(N4CCNC5(CC5)C4)cccc3n2)N1 [Compound I-190]
0.1 to 10 ×10⁻⁶ cm/s | > 30 ×10⁻⁶ cm/s | 10 to 30 |  |  | 0.01 to 100 nM | 100 to 1000 nM |  |  |  |  |  |  | COc1cccnc1[C@@H]1CCC[C@H](c2cn3c(N4CCN(C)CC4)cccc3n2)N1 [Compound I-191]
10 to 30 ×10⁻⁶ cm/s | > 30 ×10⁻⁶ cm/s | 0.1 to 10 |  |  | ≥ 1000 nM | ≥ 1000 nM |  |  |  |  |  |  | Cc1cccnc1[C@H]1CCC[C@@H](c2nc3ccccn3c2-c2ccncc2)N1 [Compound I-207]
10 to 30 ×10⁻⁶ cm/s | 10 to 30 ×10⁻⁶ cm/s | 0.1 to 10 |  |  | ≥ 1000 nM | ≥ 1000 nM |  |  |  |  |  |  | Cc1cccnc1[C@@H]1CCC[C@H](c2nc3ccccn3c2-c2cccnc2)N1 [Compound I-208]
0.1 to 10 ×10⁻⁶ cm/s | 10 to 30 ×10⁻⁶ cm/s | > 30 |  |  | ≥ 1000 nM | ≥ 1000 nM |  |  |  |  |  |  | Cc1cccnc1[C@@H]1CCC[C@H](c2cn3c(N4CCN(C)C(=O)C4)cccc3n2)N1 [Compound I-210]

SMILES | Papp A→B at 90 min, 10 μM (in vitro) | Papp B→A at 90 min, 10 μM (in vitro) | efflux ratio at 90 min, 10 μM (in vitro) | fraction unbound [1] | fraction unbound [2] | IC50 [3] | IC50 [4] | AUC(0-t) [5, 6] | AUC(0-t) [5, 7] | Kp [5] | Kp uu [5] | clearance [5] | half-life [5]
CN1C2CCC1CN(c1cccc3nc([C@H]4CCC[C@@H](c5ncccc5Cl)N4)cn13)C2 [Compound I-181] | 0.1 to 10 ×10⁻⁶ cm/s | 10 to 30 ×10⁻⁶ cm/s | 0.1 to 10 |  |  | 0.01 to 100 nM | 0.01 to 100 nM |  |  |  |  |  | 
CN1CC2CCC(C1)N2c1cccc2nc([C@H]3CCC[C@@H](c4ncccc4Cl)N3)cn12 [Compound I-182] | 10 to 30 ×10⁻⁶ cm/s | 10 to 30 ×10⁻⁶ cm/s | 0.1 to 10 |  |  | 0.01 to 100 nM | ≥ 1000 nM |  |  |  |  |  | 
Cc1cccnc1[C@@H]1CCC[C@H](c2cn3c(N4C5CCC4CN(C)C5)cccc3n2)N1 [Compound I-186] | 0.1 to 10 ×10⁻⁶ cm/s | 10 to 30 ×10⁻⁶ cm/s | 0.1 to 10 |  |  | 0.01 to 100 nM | 0.01 to 100 nM |  |  |  |  |  | 
